Reference: US9682928B2 (NeuroPro Therapeutics, Inc., priority 2009, dated 2017)
Like-named read-outs stand apart in the source and are kept apart here.

Experiments:
Sprague-Dawley rats = test: Kainic acid induced seizures in rats; assay type: in vivo, rat; design: key to Seizures Severity Mean ± SD (grade 0 to IV): seizure grade 0 = no response to IV = status epilepticus; settings: 20 μmoles/kg IP; for Seizures Severity Mean ± SD (grade 0 to IV) / Seizures Mean ± SD (1 = yes, 0 = no): KA 15 mg/kg i.p.; for Seizures Mean ± SD (1 = yes, 0 = no): 2 hours; for change in vivo at 20 µmol/kg: Rattus norvegicus, 2 h, vs DMSO control
Procedure: Formulation of kainic acid was performed by NTS as a stock solution by reconstituting kainic acid with (100%) saline that was stored at 4° C. Vehicle control received saline solution. […] The research investigators were blinded to the treatment groups.
Solutions were prepared fresh daily just prior to use; dosing of all 10 rats with any given compound occurred on a single day after preparing the dosing solution. […] Unused remaining dosing solutions were stored frozen.
Animals were maintained in a temperature- and light-controlled environment in accord with the principles and procedures of the National Institutes of Health Guidelines for Care and Use of Laboratory Animals. Seizures were induced in adult, male Sprague-Dawley rats (260-300 g) by injection of KA (15 mg/kg, i.p.). In addition, animals were injected with test compounds following kainic acid to determine the effects on protection from epilepsy. Animals were monitored behaviorally for seizures for 2 hours after injection.
Seizure activity was initially characterized as either yes (1) or no (0) within a 2 hour period following injection of KA. A seizure severity grade was assigned based on the maximal response achieved on a scale from 0 to IV as follows: 0, no response; I, single limb clonus and scratching; II, multiple limb clonus and staggering gait; […], limb clonus, tonic extension of limbs and falling; IV, continuous grade III seizures for longer than 30 min (status epilepticus).
The results were expressed as the mean±standard deviation (SD). The significance of difference in the epileptic data was analyzed using a one-way analysis of variance (ANOVA) followed by Fisher's post hoc test. Repeated-measures ANOVA were computed on the monitoring data and the significance of the difference among groups were evaluated by Fisher's post hoc test.
All groups were subjected to kainic acid.
The induction of seizures in rats with kainic acid was determined as either yes seizures (1) or no seizures (0).

Na+K+Cl− co-transporter = biological target: T1, Na+K+Cl− co-transporter (Rattus norvegicus, UniProt E9PTX9); test: Na+K+Cl− cotransporter assay, 86Rb uptake in A7r5 cells; assay type: cell-based; settings: 10 minutes at 37° C.; for inhibition at 10 µM: read-out: % Inhibition of Control Values; for remaining activity at 10 µM: read-out: % of Control Value; for % Inhibition of Control Values / % of Control Value: 10 μM
T1 construct: endogenous in cells; host or cells: A7r5 cells
T1 sequence (E9PTX9 1-1203): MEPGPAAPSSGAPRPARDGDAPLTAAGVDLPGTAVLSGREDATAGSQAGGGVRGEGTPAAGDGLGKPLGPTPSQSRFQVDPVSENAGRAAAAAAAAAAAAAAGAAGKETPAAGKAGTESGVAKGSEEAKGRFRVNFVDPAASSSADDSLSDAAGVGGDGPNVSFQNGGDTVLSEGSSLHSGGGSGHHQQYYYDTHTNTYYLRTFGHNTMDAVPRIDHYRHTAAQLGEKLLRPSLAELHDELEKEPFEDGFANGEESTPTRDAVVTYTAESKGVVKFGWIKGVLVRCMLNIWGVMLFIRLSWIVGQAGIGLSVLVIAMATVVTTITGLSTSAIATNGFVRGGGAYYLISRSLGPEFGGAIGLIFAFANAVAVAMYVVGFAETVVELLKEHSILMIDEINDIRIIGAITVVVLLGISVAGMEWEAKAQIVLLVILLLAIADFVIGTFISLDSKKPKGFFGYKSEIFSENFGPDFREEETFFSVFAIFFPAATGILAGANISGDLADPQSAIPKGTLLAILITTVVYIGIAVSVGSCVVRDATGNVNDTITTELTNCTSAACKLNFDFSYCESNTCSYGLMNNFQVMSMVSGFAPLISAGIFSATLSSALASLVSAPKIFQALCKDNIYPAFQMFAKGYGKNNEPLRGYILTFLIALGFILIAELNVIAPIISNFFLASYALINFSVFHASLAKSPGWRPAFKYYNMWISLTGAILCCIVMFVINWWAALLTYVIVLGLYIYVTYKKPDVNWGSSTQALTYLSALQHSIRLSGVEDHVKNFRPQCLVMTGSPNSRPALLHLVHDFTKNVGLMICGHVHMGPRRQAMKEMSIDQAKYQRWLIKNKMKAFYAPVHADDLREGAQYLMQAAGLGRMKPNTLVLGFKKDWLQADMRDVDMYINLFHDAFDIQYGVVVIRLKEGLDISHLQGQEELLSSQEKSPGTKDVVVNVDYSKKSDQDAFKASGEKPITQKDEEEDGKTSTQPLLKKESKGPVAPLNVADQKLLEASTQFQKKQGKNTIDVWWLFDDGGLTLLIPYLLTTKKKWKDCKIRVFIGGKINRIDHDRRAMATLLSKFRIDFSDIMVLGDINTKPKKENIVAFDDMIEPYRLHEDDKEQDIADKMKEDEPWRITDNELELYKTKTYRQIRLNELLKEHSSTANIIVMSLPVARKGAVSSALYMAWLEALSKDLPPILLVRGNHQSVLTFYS
Procedure: Na^+K^+Cl^− co-transporter activity was measured in vitro in A7r5 cells by measuring their uptake of ^86Rb (0.2 μCi) in 10 minutes at 37° C. as detected by scintillation counting. See Chassande, et al. (1988) “The Na^+/K^+/Cl^− Cotransport in C6 glioma cells. Properties and role in volume regulation.” Eur. J. Biochem. 171: 425433.

[1] = read-out: Percent reduction in Seizures
[2] = read-out: Percent reduction in Seizures Severity

Structure (SMILES): OC[C@@H](O)[C@@H](O)[C@H](O)[C@H](O)CO [Mannitol, reference compound]
- Seizures Severity Mean ± SD (grade 0 to IV) (Sprague-Dawley rats): 0.5000 ± 0.7071
- Seizures Mean ± SD (1 = yes, 0 = no) (Sprague-Dawley rats): 0.4000 ± 0.5164
- change in vivo at 20 µmol/kg (Sprague-Dawley rats; [1]): -55.5%
- change in vivo at 20 µmol/kg (Sprague-Dawley rats; [2]): -79.2%

Structure (SMILES): CCCCNc1cc(C(=O)N(CC)CC)cc(S(N)(=O)=O)c1Oc1ccccc1 [NTP-2007, N,N-Diethyl 3-Aminosulfonyl-5-butylamino-4-phenoxybenzamide]
- Seizures Severity Mean ± SD (grade 0 to IV) (Sprague-Dawley rats): 1.500 ± 1.354
- Seizures Mean ± SD (1 = yes, 0 = no) (Sprague-Dawley rats): 0.6000 ± 0.5164
- change in vivo at 20 µmol/kg (Sprague-Dawley rats; [1]): -33.3%
- change in vivo at 20 µmol/kg (Sprague-Dawley rats; [2]): -37.5%
- inhibition at 10 µM (Na+K+Cl− co-transporter): 30%
- remaining activity at 10 µM (Na+K+Cl− co-transporter): 70.4%

Structure (SMILES): CCCCNc1cc(C(=O)N(C)C)cc(S(N)(=O)=O)c1Oc1ccccc1 [NTP-2015, N,N-Dimethyl 3-Aminosulfonyl-5-N-butylamino-4-phenoxybenzamide]
- Seizures Severity Mean ± SD (grade 0 to IV) (Sprague-Dawley rats): 1.100 ± 1.197
- Seizures Mean ± SD (1 = yes, 0 = no) (Sprague-Dawley rats): 0.5000 ± 0.5270
- change in vivo at 20 µmol/kg (Sprague-Dawley rats; [1]): -44.4%
- change in vivo at 20 µmol/kg (Sprague-Dawley rats; [2]): -54.2%

Structure (SMILES): CCCCNc1cc(C(=O)NC)cc(S(N)(=O)=O)c1Oc1ccccc1 [NTP-2016, N-Methyl 3-Aminosulfonyl-5-N-butylamino-4-phenoxybenzamide]
- % Inhibition of Control Values (Na+K+Cl− co-transporter): −7%
- % of Control Value (Na+K+Cl− co-transporter): 107.2%

Structure (SMILES): CCCCNc1cc(C(=O)NCc2ccccc2)cc(S(N)(=O)=O)c1Oc1ccccc1 [NTP-2018, N-Benzyl 3-Aminosulfonyl-5-N-butylamino-4-phenoxybenzamide]
- % Inhibition of Control Values (Na+K+Cl− co-transporter): 13%
- % of Control Value (Na+K+Cl− co-transporter): 87.3%

Structure (SMILES): CCCCNc1cc(C(=O)N[C@H](C)c2ccccc2)cc(S(N)(=O)=O)c1Oc1ccccc1 [NTP-2020, (R)-α-Methylbenzyl 3-Aminosulfonyl-5-N-butylamino-4-phenoxybenzamide]
- % Inhibition of Control Values (Na+K+Cl− co-transporter): 7%
- % of Control Value (Na+K+Cl− co-transporter): 93.5%

Structure (SMILES): CCCCNc1cc(C(=O)N[C@@H](C)c2ccccc2)cc(S(N)(=O)=O)c1Oc1ccccc1 [NTP-2021, (S)-α-Methylbenzyl 3-Aminosulfonyl-5-N-butylamino-4-phenoxybenzamide]
- % Inhibition of Control Values (Na+K+Cl− co-transporter): 27%
- % of Control Value (Na+K+Cl− co-transporter): 72.6%

Structure (SMILES): CCCCNc1cc(C(=O)N2CCCC2)cc(S(N)(=O)=O)c1Oc1ccccc1 [NTP-2022, N-Pyrrolidinyl Aminosulfonyl-5-N-butylamino-4-phenoxybenzamide]
- Seizures Severity Mean ± SD (grade 0 to IV) (Sprague-Dawley rats): 1.100 ± 1.101
- Seizures Mean ± SD (1 = yes, 0 = no) (Sprague-Dawley rats): 0.6000 ± 0.5164
- change in vivo at 20 µmol/kg (Sprague-Dawley rats; [1]): -33.3%
- change in vivo at 20 µmol/kg (Sprague-Dawley rats; [2]): -54.2%
- inhibition at 10 µM (Na+K+Cl− co-transporter): 7%
- remaining activity at 10 µM (Na+K+Cl− co-transporter): 92.7%

Structure (SMILES): CCCCNc1cc(C(=O)NN2CCCCC2)cc(S(N)(=O)=O)c1Oc1ccccc1 [NTP-2023, N-Piperidinyl 3-Aminosulfonyl-5-N-butylamino-4-phenoxybenzamide]
- % Inhibition of Control Values (Na+K+Cl− co-transporter): 23%
- % of Control Value (Na+K+Cl− co-transporter): 77.3%

Structure (SMILES): CCCCNc1cc(C(=O)NCCCN(C)C)cc(S(N)(=O)=O)c1Oc1ccccc1 [NTP-2025]
- inhibition at 10 µM (Na+K+Cl− co-transporter): -27%
- remaining activity at 10 µM (Na+K+Cl− co-transporter): 127%

Structure (SMILES): CCCCCCCCCCOC(=O)c1cc(NCCCC)c(Oc2ccccc2)c(S(N)(=O)=O)c1 [NTP-2028, n-Decyl Aminosulfonyl-5-N-butylamino-4-phenoxybenzoate]
- % Inhibition of Control Values (Na+K+Cl− co-transporter): 16%
- % of Control Value (Na+K+Cl− co-transporter): 84.4%

Structure (SMILES): CCCCNc1cc(C(=O)OCC=C(C)C)cc(S(N)(=O)=O)c1Oc1ccccc1 [NTP-2029, 3-Methylbut-2-enyl Aminosulfonyl-5-N-butylamino-4-phenoxybenzoate]
- % Inhibition of Control Values (Na+K+Cl− co-transporter): 12%
- % of Control Value (Na+K+Cl− co-transporter): 88.4%

Structure (SMILES): CCCCNc1cc(C(=O)OCc2ccc(OC)cc2)cc(S(N)(=O)=O)c1Oc1ccccc1 [NTP-2031, 4-Methoxybenzyl Aminosulfonyl-5-N-butylamino-4-phenoxybenzoate]
- % Inhibition of Control Values (Na+K+Cl− co-transporter): 7%
- % of Control Value (Na+K+Cl− co-transporter): 92.6%

Structure (SMILES): CCCCNc1cc(C(=O)OCCCCc2ccccc2)cc(S(N)(=O)=O)c1Oc1ccccc1 [NTP-2034, 4-phenylbutyl 3-Aminosulfonyl-5-N-butylamino-4-phenoxybenzoate]
- % Inhibition of Control Values (Na+K+Cl− co-transporter): 21%
- % of Control Value (Na+K+Cl− co-transporter): 78.9%

Structure (SMILES): CCCCNc1cc(C(=O)O[C@H](C)c2ccccc2)cc(S(N)(=O)=O)c1Oc1ccccc1 [NTP-2035, (R)-α-Methylbenzyl 3-Aminosulfonyl-5-N-butylamino-4-phenoxybenzoate]
- % Inhibition of Control Values (Na+K+Cl− co-transporter): 26%
- % of Control Value (Na+K+Cl− co-transporter): 74.5%

Structure (SMILES): CCCCNc1cc(C(=O)O[C@@H](C)c2ccccc2)cc(S(N)(=O)=O)c1Oc1ccccc1 [NTP-2036, (S)-α-Methylbenzyl 3-Aminosulfonyl-5-N-butylamino-4-phenoxybenzoate]
- % Inhibition of Control Values (Na+K+Cl− co-transporter): 20%
- % of Control Value (Na+K+Cl− co-transporter): 80.1%
